Measurements: patent US6376497B1, “Antifungal azole derivatives having a fluorinated vinyl group and process for preparing same” (Korea Research Institute of Chemical Technology, priority 1999, dated 2002)

Columns and labels:
Experiment in all cases: In vitro antifungal activity, microbroth dilution MIC
Assay type in all cases: cell-based
[1] = tested on: Aspergillus furnigatus B. 19119; details: RPMI-1640, 35° C., 4 to 48 hours, no growth observed
Method in brief: (§1)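 Broth microdilution adapted from NCCLS M27, in RPMI-1640 with 0.165 M MOPS, pH 7.0. Yeast or mould inoculum at 2×10^3 CFU/ml was mixed 1:1 with DMSO-derived compound solutions (200 to 0.10 μg/ml before mixing) and incubated at 35 °C for 4 to 48 h. MIC was the concentration showing no growth.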

[2] = tested on: Aspergillus niger A. 16404; details: RPMI-1640, 35° C., 4 to 48 hours, no growth observed
Method in brief: as §1

[3] = tested on: Candida albicans A. 10231; details: 4 to 48 hours; for Minimal inhibitory concentration (MIC): C. albicans A. 10231, RPMI-1640, 35° C.; for Minimal inhibitory concentration(MIC), C. albicans A. 10231: RPMI-1640, 35° C., no growth observed
Method in brief: as §1

Candida albicans C1-2 = details: 4 to 48 hours; for Minimal inhibitory concentration (MIC): C. albicans C1-2, RPMI-1640, 35° C.; for Minimal inhibitory concentration(MIC), C. albicans C1-2: RPMI-1640, 35° C., no growth observed
Method in brief: as §1

[4] = tested on: Candida albicans IFO. 1385; details: RPMI-1640, 35° C., 4 to 48 hours, no growth observed
Method in brief: as §1

Candida krusei K. 11655 = details: RPMI-1640, 35° C., 4 to 48 hours, no growth observed
Method in brief: as §1

[5] = tested on: Candida parapsitosis A. 7330; details: RPMI-1640, 35° C., 4 to 48 hours, no growth observed
Method in brief: as §1

[6] = tested on: Candida pseudotropicalis K. 11658; details: RPMI-1640, 35° C., 4 to 48 hours, no growth observed
Method in brief: as §1

[7] = tested on: Candida tropicalis A. 13803; details: RPMI-1640, 35° C., 4 to 48 hours, no growth observed
Method in brief: as §1

[8] = tested on: Cryptococcus neoformans A. 34144; details: RPMI-1640, 35° C., 4 to 48 hours, no growth observed
Method in brief: as §1

[9] = tested on: Cryptococcus neoformans B. 42419; details: RPMI-1640, 35° C., 4 to 48 hours, no growth observed
Method in brief: as §1

[10] = tested on: Cryptococcus neoformans IFM. 40092; details: RPMI-1640, 35° C., 4 to 48 hours, no growth observed
Method in brief: as §1

[11] = tested on: Torulopsis glabrata B. 16205; details: RPMI-1640, 35° C., 4 to 48 hours, no growth observed
Method in brief: as §1

[12] = tested on: Trichophyton mentagrophytes A. 9129; details: RPMI-1640, 35° C., 4 to 48 hours, no growth observed
Method in brief: as §1

[13] = tested on: Trichophyton mentagrophytes B. 32663; details: RPMI-1640, 35° C., 4 to 48 hours, no growth observed
Method in brief: as §1

Minimal inhibitory concentration(MIC), A furnigatus B. 19119 [1]	Minimal inhibitory concentration(MIC), A. niger A. 16404 [2]	Minimal inhibitory concentration (MIC) [3]	Minimal inhibitory concentration (MIC) (Candida albicans C1-2)	Minimal inhibitory concentration(MIC), C. albicans IFO. 1385 [4]	Minimal inhibitory concentration(MIC), C. krusei K. 11655 (Candida krusei K. 11655)	Minimal inhibitory concentration(MIC), C. parapsitosis A. 7330 [5]	Minimal inhibitory concentration(MIC), C. pseudotropicalis K. 11658 [6]	Minimal inhibitory concentration(MIC), C. tropicalis A. 13803 [7]	Minimal inhibitory concentration(MIC), Cry. neoformans A. 34144 [8]	Minimal inhibitory concentration(MIC), Cry. neoformans B. 42419 [9]	Minimal inhibitory concentration(MIC), Cry. neoformans IFM. 40092 [10]	Minimal inhibitory concentration(MIC), T. glabrata B. 16205 [11]	Minimal inhibitory concentration(MIC), T. mentagrophytes A. 9129 [12]	Minimal inhibitory concentration(MIC), T. mentagrophytes B. 32663 [13]	Minimal inhibitory concentration(MIC), C. albicans A. 10231 [3]	Minimal inhibitory concentration(MIC), C. albicans C1-2 (Candida albicans C1-2)	Structure (SMILES)
>100 mg/L	>100 mg/L	>100 mg/L	>100 mg/L	>100 mg/L	>100 mg/L	>100 mg/L	>100 mg/L	>100 mg/L	>100 mg/L	>100 mg/L	1.56 mg/L	>100 mg/L	>100 mg/L	>100 mg/L			FC(OCC1COC(Cn2cncn2)(c2ccc(Cl)cc2Cl)O1)=C(c1ccccc1)C(F)(F)F (mixture of isomers) [Ex. 79]
>100 mg/L	>100 mg/L	>100 mg/L	>100 mg/L	12.5 mg/L	>100 mg/L	>100 mg/L	>100 mg/L	>100 mg/L	1.56 mg/L	1.56 mg/L	0.78 mg/L	>100 mg/L	100 mg/L	100 mg/L			Cc1cccc(C(=C(F)OCC2COC(Cn3cncn3)(c3ccc(Cl)cc3Cl)O2)C(F)(F)F)c1 (mixture of isomers) [Ex. 80]
>100 mg/L	>100 mg/L			12.5 mg/L	>100 mg/L	>100 mg/L	50.0 mg/L	>100 mg/L	0.78 mg/L	1.56 mg/L	0.39 mg/L	>100 mg/L	100 mg/L	100 mg/L	>100 mg/L	>100 mg/L	Cc1ccc(C(=C(F)OCC2COC(Cn3cncn3)(c3ccc(Cl)cc3Cl)O2)C(F)(F)F)cc1 (mixture of isomers) [Ex. 81]
>100 mg/L	>100 mg/L			6.25 mg/L	>100 mg/L	>100 mg/L	>100 mg/L	>100 mg/L	1.56 mg/L	1.56 mg/L	0.78 mg/L	>100 mg/L	>100 mg/L	>100 mg/L	>100 mg/L	100 mg/L	COc1ccc(C(=C(F)OCC2COC(Cn3cncn3)(c3ccc(Cl)cc3Cl)O2)C(F)(F)F)cc1 (mixture of isomers) [Ex. 84]

Further lines, the molecule ahead of its results:

Structure (SMILES)	Minimal inhibitory concentration(MIC), A furnigatus B. 19119 [1]	Minimal inhibitory concentration(MIC), A. niger A. 16404 [2]	Minimal inhibitory concentration (MIC) [3]	Minimal inhibitory concentration (MIC) (Candida albicans C1-2)	Minimal inhibitory concentration(MIC), C. albicans IFO. 1385 [4]	Minimal inhibitory concentration(MIC), C. krusei K. 11655 (Candida krusei K. 11655)	Minimal inhibitory concentration(MIC), C. parapsitosis A. 7330 [5]	Minimal inhibitory concentration(MIC), C. pseudotropicalis K. 11658 [6]	Minimal inhibitory concentration(MIC), C. tropicalis A. 13803 [7]	Minimal inhibitory concentration(MIC), Cry. neoformans A. 34144 [8]	Minimal inhibitory concentration(MIC), Cry. neoformans B. 42419 [9]	Minimal inhibitory concentration(MIC), Cry. neoformans IFM. 40092 [10]	Minimal inhibitory concentration(MIC), T. glabrata B. 16205 [11]	Minimal inhibitory concentration(MIC), T. mentagrophytes A. 9129 [12]	Minimal inhibitory concentration(MIC), T. mentagrophytes B. 32663 [13]	Minimal inhibitory concentration(MIC), C. albicans A. 10231 [3]	Minimal inhibitory concentration(MIC), C. albicans C1-2 (Candida albicans C1-2)
FC(=Cc1ccc2c(c1)OCO2)OCC1COC(Cn2cncn2)(c2ccc(Cl)cc2Cl)O1 (mixture of isomers) [Ex. 75]	100 mg/L	>100 mg/L	100 mg/L	100 mg/L	25.0 mg/L	100 mg/L	>100 mg/L	25.0 mg/L	100 mg/L	1.56 mg/L	1.56 mg/L	0.39 mg/L	50.0 mg/L	3.13 mg/L	3.13 mg/L		
FC(=Cc1ccc(Cl)cc1)OCC1COC(Cn2cncn2)(c2ccc(Cl)cc2Cl)O1 (mixture of isomers) [Ex. 76]	25.0 mg/L	12.5 mg/L	6.25 mg/L	6.25 mg/L	6.25 mg/L	>100 mg/L	>100 mg/L	100 mg/L	25.0 mg/L	3.13 mg/L	3.13 mg/L	0.78 mg/L	25.0 mg/L	3.13 mg/L	3.13 mg/L		
FC(=Cc1ccc(F)cc1)OCC1COC(Cn2cncn2)(c2ccc(Cl)cc2Cl)O1 (mixture of isomers) [Ex. 77]	100 mg/L	>100 mg/L	100 mg/L	100 mg/L	25.0 mg/L	12.5 mg/L	12.5 mg/L	6.25 mg/L	100 mg/L	3.13 mg/L	1.56 mg/L	0.78 mg/L	50.0 mg/L	6.25 mg/L	6.25 mg/L		
Cc1ccc(C(=C(F)OCC2COC(Cn3cncn3)(c3ccc(Cl)cc3Cl)O2)C(F)(F)F)cc1C (mixture of isomers) [Ex. 82]	>100 mg/L	>100 mg/L			12.5 mg/L	>100 mg/L	>100 mg/L	>100 mg/L	>100 mg/L	3.13 mg/L	3.13 mg/L	0.39 mg/L	>100 mg/L	>100 mg/L	>100 mg/L	>100 mg/L	>100 mg/L
Cc1cc(C)cc(C(=C(F)OCC2COC(Cn3cncn3)(c3ccc(Cl)cc3Cl)O2)C(F)(F)F)c1 (mixture of isomers) [Ex. 83]	>100 mg/L	>100 mg/L			>100 mg/L	>100 mg/L	>100 mg/L	>100 mg/L	>100 mg/L	>100 mg/L	>100 mg/L	1.56 mg/L	>100 mg/L	>100 mg/L	>100 mg/L	>100 mg/L	>100 mg/L
